Assay results: patent US7271253B1, “Safe process for the preparation of balsalazide” (Apotex Pharmachem Inc., priority 2006, dated 2007)

Experiments:
[1] = Solubility in water of N-(4-aminobenzoyl)-β-alanine salts; format: physicochemical
From the text: According to one aspect of the invention, a more soluble salt of N-(4-aminobenzoyl)-β-alanine is provided which overcomes the use of the previous forms which were virtually insoluble in water.
(for example as depicted in FIG. 1). This latter temperature was selected as it provided for optimal reaction.
The preferred concentration of the aqueous sulfonic acid solution was about 4% to about 14%, more preferably about 7% to about 12%, and most preferably about 9%. The fact that higher concentrations were preferred, despite the decreased solubility of the salt, was a consequence of the fact that operationally, the use of about 9% sulfonic acid concentrations permitted proportionally lower reaction volumes, without compromising safety, and was advantageous for commercial scale-up.
FIG. 3—A comparison of the relative solubility of mesylate in differing concentrations of aqueous methanesulfonic acid.

[2] = RSST, different reaction temperatures, FIG. 1
From the text: The decomposition of the intermediate was indicated by the pressure increase.
FIG. 1—Plot showing the rate of decomposition of diazonium mesylate at different temperatures. Increased pressure is indicative of the decomposition of the mesylate to form nitrogen gas.

[3] = DSC, FIG. 2

In the case of `Nc1ccc(C(=O)NCCC(=O)O)cc1` [chloride, N-(4-aminobenzoyl)-β-alanine], the solubility in water [1] was “poorly soluble” and the solubility in water ([1]; listed as hydrochloride salt of 4-aminobenzoyl-β-alanine) was “poor solubility”.

For `Nc1ccc(C(=O)NCCC(=O)O)cc1` [free-base, N-(4-aminobenzoyl)-β-alanine], the “solubility at higher concentrations of sulfonic acid” value ([1]; differing concentrations of aqueous methanesulfonic acid, FIG. 3) was “decrease in the solubility”.

With `CS(=O)(=O)O.Nc1ccc(C(=O)NCCC(=O)O)cc1` [methanesulfonic acid salt, N-(4-ammoniumbenzoyl)-β-alanine sulfonate salt] the solubility in water [1] was “unexpectedly high water solubility”.

With `CS(=O)(=O)[O-].N#[N+]c1ccc(C(=O)NCCC(=O)O)cc1` [diazonium mesylate, N-(4-diazoniumbenzoyl)-β-alanine sulfonate salt] the “temperature at which decomposition may start” value [2] was 25 °C and the “decomposition energy of solid relative to solution” value [3] was “almost ten-fold higher”.
